pIC50: −log10 of the molar value. Where two headings read alike, the source gives them in different places.
Assays:
[1] = target: AAK1 (Homo sapiens, UniProt Q2M2I8); assay: pAP2M1 cell-based assay (in-cell Western); conditions: Hela cells co-transfected with AP2M1 and AAK1, 3 hr treatment, read-out: AAK1 In-cell Western: IC50
Text: pAP2M1 Cell-Based Assay (in-Cell Western):
The plate was read on Licor Odyssey CLx imaging system (LICOR) to acquire fluorescence intensity at 700 channel and 800 channel.
Data analysis: Fluorescence intensity at 700 channel served as internal standard and 800 channel were normalized with 700 channel.

[2] = target: T1, AAK1 (amino acids T27-A365) (Homo sapiens, UniProt Q2M2I8); assay: AAK1 pSENs assay; type: biochemical; conditions: read-out: AAK1 pSENs: EIC50
T1 construct: against AAK1 (amino acids T27-A365); 6His (N, cleaved yes)
In short: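 Biotinylated, tag-free AAK1 T27-A365 expressed in E. coli was held at 20 nM in enzyme solution (HEPES pH 7.5, 10 mM MgCl2, DTT, EGTA, Brij35, BSA) and preincubated with compound for 15 min at 25 °C. The reaction was started with an equal volume of substrate solution containing 30 uM AQT0759 peptide and 70 uM ATP. IC50 determined.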

[3] = target: T2, GAK (amino acids Q25-N335) (Homo sapiens, UniProt O14976); assay: GAK pSENs assay; type: biochemical; conditions: read-out: GAK pSENs:IC50
T2 construct: against GAK (amino acids Q25-N335); 6His (N, cleaved yes)
T2 sequence (O14976 25-335): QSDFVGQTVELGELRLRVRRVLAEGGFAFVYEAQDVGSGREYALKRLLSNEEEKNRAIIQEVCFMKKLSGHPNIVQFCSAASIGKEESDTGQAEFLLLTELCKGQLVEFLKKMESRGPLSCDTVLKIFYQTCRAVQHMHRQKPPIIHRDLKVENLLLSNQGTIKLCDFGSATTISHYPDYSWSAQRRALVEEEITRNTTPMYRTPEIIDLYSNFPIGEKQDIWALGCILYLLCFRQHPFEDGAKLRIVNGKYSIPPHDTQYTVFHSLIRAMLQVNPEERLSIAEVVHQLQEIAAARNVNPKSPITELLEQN
Protocol: The recombinant proteins were independently expressed in Escherichia coli BL21(DE3) cells cultured in Luria-Bertani (LB) medium until OD600 reached 0.6-0.8, then cooled to 15° C. and supplemented with 0.5 mM isopropyl 1-thio-D-galactopyranoside (IPTG) induce protein expression 16 h. Cells were harvested and resuspended in lysis buffer (50 mM HEPES pH 7.5, 500 mM NaCl, 5 mM imidazole, 5% glycerol, 0.5 mM Tris (2-carboxyethyl) phosphine (TCEP), cOmplete Protease Inhibitor Tablet (Roche)) and lysed by microfludics high pressure homogenizer (UH-06, Union-Biotech). Proteins were purified using […] chromatography (His FF column, Bestchrom) and eluted stepwise in binding buffer with 20-300 mM imidazole. Removal of the hexahistidine tag was performed at 4° C. overnight using recombinant TEV protease and reacted with BirA to obtain the corresponding biotinylated-AAK1, BIKE or GAK proteins. Further separated in the reverse Strep column (Strep-Tactin® XT, IBA). The Biotin elution sample was collected containing untagged biotinylated protein was then purified by Ion-exchange chromatography (Mono Q 10/100 GL, Cytiva) and Size-exclusion chromatography (HiLoad 16/600 Superdex 200 pg, Cytiva). The pure protein was stored in a storage buffer 50 mM HEPES (pH 7.5), 300 mM NaCl, 5% glycerol at −80° C. Protein were characterized by SDS-PAGE, LC-MS and aSEC.
This example describes one illustrative method for determining the IC50 of the compounds of the present invention against GAK (amino acids Q25-N335).

[4] = target: T3, BIKE (amino acids S38-E345) (K320A, K321A) (Homo sapiens, UniProt Q9NSY1, K320A/K321A); assay: BIKE pSENs assay; type: biochemical; conditions: read-out: BIKE pSENs: IC50
T3 construct: against BIKE (amino acids S38-E345) (K320A, K321A); 6His (N, cleaved yes)
In short: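 E. coli-expressed, biotinylated, tag-free BIKE at 20 nM in HEPES pH 7.5 buffer with 10 mM MgCl2 preincubated with compound 15 min at 25° C. Reaction started with 30 uM AQT0759 sensor peptide and 40 uM ATP (concentrations before 1:1 mixing).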

Sequence of AAK1 (Q2M2I8 whole entry): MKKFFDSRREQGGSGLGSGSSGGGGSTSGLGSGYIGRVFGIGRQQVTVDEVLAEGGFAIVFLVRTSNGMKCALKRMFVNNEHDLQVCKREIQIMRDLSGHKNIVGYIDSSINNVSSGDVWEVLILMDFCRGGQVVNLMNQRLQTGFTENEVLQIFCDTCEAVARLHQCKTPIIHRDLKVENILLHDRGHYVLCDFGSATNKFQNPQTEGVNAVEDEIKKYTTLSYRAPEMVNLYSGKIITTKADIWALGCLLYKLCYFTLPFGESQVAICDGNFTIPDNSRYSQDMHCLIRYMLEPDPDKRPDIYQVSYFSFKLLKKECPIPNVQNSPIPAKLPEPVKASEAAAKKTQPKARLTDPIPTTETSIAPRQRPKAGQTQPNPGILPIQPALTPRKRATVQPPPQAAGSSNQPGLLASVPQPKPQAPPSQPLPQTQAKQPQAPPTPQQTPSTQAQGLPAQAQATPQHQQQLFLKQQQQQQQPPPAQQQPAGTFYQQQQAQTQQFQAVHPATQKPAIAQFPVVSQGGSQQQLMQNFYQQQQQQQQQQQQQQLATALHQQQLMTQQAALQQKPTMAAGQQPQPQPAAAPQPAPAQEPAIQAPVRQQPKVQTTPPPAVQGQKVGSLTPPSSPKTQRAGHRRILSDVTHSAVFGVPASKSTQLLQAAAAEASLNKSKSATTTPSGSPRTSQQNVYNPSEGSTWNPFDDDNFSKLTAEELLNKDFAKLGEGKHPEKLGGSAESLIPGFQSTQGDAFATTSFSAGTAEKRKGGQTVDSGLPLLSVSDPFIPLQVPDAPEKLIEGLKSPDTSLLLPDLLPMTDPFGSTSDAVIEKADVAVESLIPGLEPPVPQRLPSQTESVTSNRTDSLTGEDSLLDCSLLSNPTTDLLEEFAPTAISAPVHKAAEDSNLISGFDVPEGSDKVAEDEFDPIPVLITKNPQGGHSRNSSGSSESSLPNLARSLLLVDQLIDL
T3 sequence (Q9NSY1 38-345 K320A/K321A): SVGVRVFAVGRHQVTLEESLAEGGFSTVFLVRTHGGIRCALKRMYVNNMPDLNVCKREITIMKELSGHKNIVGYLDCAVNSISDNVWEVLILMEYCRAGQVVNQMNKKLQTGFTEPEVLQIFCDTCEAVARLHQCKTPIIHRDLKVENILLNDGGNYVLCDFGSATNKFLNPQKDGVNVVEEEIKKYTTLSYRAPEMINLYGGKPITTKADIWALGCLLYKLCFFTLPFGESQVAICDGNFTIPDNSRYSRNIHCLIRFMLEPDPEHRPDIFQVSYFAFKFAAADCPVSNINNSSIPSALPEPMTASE
T1 sequence (Q2M2I8 27-365): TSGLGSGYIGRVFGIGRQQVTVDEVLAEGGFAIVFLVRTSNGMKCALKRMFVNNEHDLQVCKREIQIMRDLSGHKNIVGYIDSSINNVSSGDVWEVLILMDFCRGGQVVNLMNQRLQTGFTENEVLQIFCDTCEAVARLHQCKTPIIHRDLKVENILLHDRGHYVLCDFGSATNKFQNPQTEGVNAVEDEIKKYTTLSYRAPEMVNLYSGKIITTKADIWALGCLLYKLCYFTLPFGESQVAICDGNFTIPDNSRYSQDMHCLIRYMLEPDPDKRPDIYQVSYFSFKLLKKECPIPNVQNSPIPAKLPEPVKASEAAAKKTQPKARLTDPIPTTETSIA

SMILES | pIC50 ([1]; class symbols) | pIC50 ([2]; class symbols) | pIC50 ([3]; class symbols) | pIC50 ([4]; class symbols) | pIC50 ([1]; numeric values) | pIC50 ([2]; numeric values) | pIC50 ([3]; numeric values) | pIC50 ([4]; numeric values)
CN1C[C@@H](OC(=O)N2CCN(c3ccn4nccc4n3)CC2)CC1=O [Compound I-97, [(3S)-1-methyl-5-oxo-pyrrolidin-3-yl]-4-pyrazolo[1,5-a]pyrimidin-5-ylpiperazine-1-carboxylate] | < 5.82 | < 5.82 | < 5.82 | < 5.82 |  |  |  | 
Oc1ncccc1-c1cnn2ccc(N3CCNCC3)nc12 [Compound I-106, 3-(5-piperazin-1-ylpyrazolo[1,5-a]pyrimidin-3-yl)pyridin-2-ol] | < 5.82 | 5.82 to 6.30 | < 5.82 | 6.30 to 6.82 |  |  |  | 
CC1(OC(=O)N2CCN(c3ccn4ncc(-c5ccc(C(N)=O)cc5)c4n3)CC2)COC1 [Compound I-3, (3-methyloxetan-3-yl)-4-[3-(4-carbamoylphenyl)pyrazolo[1,5-a]pyrimidin-5-yl]piperazine-1-carboxylate] | 5.82 to 6.30 | 7.30 to 9.00 | 5.82 to 6.30 | 6.82 to 7.29 |  |  |  | 
CC1(OC(=O)N2CCN(c3ccn4ncc(-c5cccc(C(N)=O)c5)c4n3)CC2)COC1 [Compound I-4, (3-methyloxetan-3-yl)-4-[3-(3-carbamoylphenyl)pyrazolo[1,5-a]pyrimidin-5-yl]piperazine-1-carboxylate] | 5.82 to 6.30 | 6.82 to 7.29 | 5.82 to 6.30 | 5.82 to 6.30 |  |  |  | 
O=C1C[C@H](OC(=O)N2CCN(c3ccn4ncc(-c5cccnc5OC5CC5)c4n3)CC2)CN1CCOCc1ccccc1 [Compound I-37, [(3S)-1-(2-benzyloxyethyl)-5-oxo-pyrrolidin-3-yl]-4-[3-[2-(cyclopropoxy)-3-pyridyl]pyrazolo[1,5-a]pyrimidin-5-yl]piperazine-1-carboxylate] | 5.82 to 6.30 | 7.30 to 9.00 | 5.82 to 6.30 | 5.82 to 6.30 |  |  |  | 
O=C1C[C@H](OC(=O)N2CCN(c3ccn4ncc(-c5cccnc5NC5CC5)c4n3)CC2)CN1 [Compound I-45, [(3S)-5-Oxopyrrolidin-3-yl]4-[3-[2-(cyclopropylamino)-3-pyridyl]pyrazolo[1,5-a]pyrimidin-5-yl]piperazine-1-carboxylate] | < 5.82 | < 5.82 | < 5.82 | < 5.82 |  |  |  | 

The next lines start with the values.

pIC50 ([1]; class symbols) | pIC50 ([2]; class symbols) | pIC50 ([3]; class symbols) | pIC50 ([4]; class symbols) | pIC50 ([1]; numeric values) | pIC50 ([2]; numeric values) | pIC50 ([3]; numeric values) | pIC50 ([4]; numeric values) | SMILES
6.82 to 7.29 | 7.30 to 9.00 | 6.82 to 7.29 | 6.82 to 7.29 |  |  |  |  | CC(C)Oc1ncccc1-c1cnn2ccc(N3CCN(C(=O)O[C@]4(C)CCNC4)CC3)nc12 [Compound I-22, [(3R)-3-methylpyrrolidin-3-yl]4-[3-(2-isopropoxy-3-pyridyl)pyrazolo[1,5-a]pyrimidin-5-yl]piperazine-1-carboxylate]
 |  |  |  | 6.80 | 8.06 | 5.98 | 7.07 | COc1ncccc1-c1cnn2ccc(N3CCN(C(=O)OC4(C)COC4)CC3)nc12 [RC-1, (3-methyloxetan-3-yl)-4-[3-(2-methoxy-3-pyridyl)pyrazolo[1,5-a]pyrimidin-5-yl]piperazine-1-carboxylate, reference compound]
6.30 to 6.82 | 7.30 to 9.00 | 5.82 to 6.30 | 5.82 to 6.30 |  |  |  |  | C[C@@]1(OC(=O)N2CCN(c3ccn4ncc(-c5cccnc5OC5CC5)c4n3)CC2)CCN(CC(N)=O)C1 [Compound I-51, (R)-1-(2-amino-2-oxoethyl)-3-(methylpyrrolidin-3-yl)-4-(3-(2-cyclopropoxypyridin-3-yl)pyrazolo[1,5-a]pyrimidin-5-yl)piperazine-1-carboxylate]
7.30 to 9.00 | 7.30 to 9.00 | 6.82 to 7.29 | 7.30 to 9.00 |  |  |  |  | C#C[C@@]1(OC(=O)N2CCN(c3ccn4ncc(-c5cccnc5OC5CC5)c4n3)CC2)CCNC1 [Compound I-16, [(3S)-3-Ethynylpyrrolidin-3-yl]-4-[3-[2-(cyclopropoxy)-3-pyridyl]pyrazolo[1,5-a]pyrimidin-5-yl]piperazine-1-carboxylate]
< 5.82 | < 5.82 | < 5.82 | < 5.82 |  |  |  |  | CN1C[C@@H](OC(=O)N2CCN(c3ccn4ncc(Cl)c4n3)CC2)CC1=O [Compound I-96, [(3S)-1-methyl-5-oxo-pyrrolidin-3-yl]-4-(3-chloropyrazolo[1,5-a]pyrimidin-5-yl)piperazine-1-carboxylate]
6.30 to 6.82 | 7.30 to 9.00 | 5.82 to 6.30 | 6.30 to 6.82 |  |  |  |  | C[C@@]1(OC(=O)N2CCN(c3ccn4ncc(-c5cccnc5OC5CC5)c4n3)CC2)CCNC1 [Compound I-14, [(3R)-3-Methylpyrrolidin-3-yl]-4-[3-[2-(cyclopropoxy)-3-pyridyl]pyrazolo[1,5-a]pyrimidin-5-yl]piperazine-1-carboxylate]
< 5.82 | 6.30 to 6.82 | < 5.82 | 5.82 to 6.30 |  |  |  |  | CN1C[C@@H](OC(=O)N2CCN(c3ccn4ncc(-c5cccnc5O)c4n3)CC2)CC1=O [Compound I-98, [(3S)-1-methyl-5-oxo-pyrrolidin-3-yl]-4-[3-(2-hydroxy-3-pyridyl)pyrazolo[1,5-a]pyrimidin-5-yl]piperazine-1-carboxylate]
5.82 to 6.30 | 7.30 to 9.00 | 6.30 to 6.82 | 6.82 to 7.29 |  |  |  |  | CN(CCNc1ccn2ncc(-c3cccnc3OC3CC3)c2n1)C(=O)O[C@]1(C)CCNC1 [Compound I-61, (R)-3-methylpyrrolidin-3-yl (2-((3-(2-cyclopropoxypyridin-3-yl)pyrazolo[1,5-a]pyrimidin-5-yl)amino)ethyl)(methyl)carbamate]

— patent US20250122207A1, “AP2 ASSOCIATED KINASE 1 INHIBITORS AND USES THEREOF” (Satellos Bioscience Inc., priority 2023, published 2025)
